Experimental data published in patent publication US8492391B2, “Substituted 6-(2-hydroxybenzylamino)purine derivatives, their use as medicaments and compositions containing these derivatives” (Univerzita Palackeho V Olomouci, priority 2009, dated 2013).
Read-outs that look alike come from different tables or passages of the source.

Experiments:
[1] = biological target: T1, CDK2/cyclin E (Homo sapiens, UniProt P24941); assay: CDK2/cyclin E kinase inhibition assay; type: biochemical; conditions: kinase inhibitory activity, 15 μM ATP, histone substrate
T1 construct: made in house; host or cells: Sf9 insect cells, baculovirus co-infection
Method: (§1) Selected compounds were tested for CDK1/cyclin B, CDK2/cyclin E, CDK5/p25, CDK7/cyclin H and CDK9/cyclin T inhibitory activity to determine the basic relationships between their structure and the inhibitory activity. Cdk/cyclin complexes were expressed in Sf9 cells co-infected with appropriate baculoviral construct. The cells were harvested 70 hours post infection in lysis buffer (50 mM Tris pH 7.4, 150 mM NaCl, 5 mM EDTA, 20 mM NaF, 1% Tween 20, protease inhibitors) for 30 min on ice and the soluble fraction was recovered by centrifugation at 14.000 g for […]. The protein extract was stored at −80° C. until use. The final point test system for kinase activity measurement was used to carry out experiments on the kinetics under linear conditions. […] ATP and tested compound in a final volume of 20 μl, all in reaction buffer: 50 mM Hepes pH 7.4, 10 mM MgCl2, 5 mM EGTA, 10 mM 2-glycerolphosphate, 1 mM NaF, 1 mM DTT and protease inhibitors. After 30 min, the incubations were stopped by adding 5% H3PO4 and then the proteins were separated by phosphocellulose binding. The measurement of kinase inhibition employed the digital imaging analyzer BAS 1800. The kinase activity was expressed as a percentage of maximum activity and the IC50 value was determined by graphic analysis. The kinase activity is expressed as a percentage of maximum activity (FIG. 1).

[2] = biological target: T2, CDK9/cyclin T (Homo sapiens, UniProt P50750); assay: CDK9/cyclin T kinase inhibition assay; type: biochemical; conditions: kinase inhibitory activity, 15 μM ATP, (YSPTSPS)3 peptide substrate
T2 construct: made in house; host or cells: Sf9 insect cells, baculovirus co-infection
T2 sequence (P50750 whole entry, species assumed): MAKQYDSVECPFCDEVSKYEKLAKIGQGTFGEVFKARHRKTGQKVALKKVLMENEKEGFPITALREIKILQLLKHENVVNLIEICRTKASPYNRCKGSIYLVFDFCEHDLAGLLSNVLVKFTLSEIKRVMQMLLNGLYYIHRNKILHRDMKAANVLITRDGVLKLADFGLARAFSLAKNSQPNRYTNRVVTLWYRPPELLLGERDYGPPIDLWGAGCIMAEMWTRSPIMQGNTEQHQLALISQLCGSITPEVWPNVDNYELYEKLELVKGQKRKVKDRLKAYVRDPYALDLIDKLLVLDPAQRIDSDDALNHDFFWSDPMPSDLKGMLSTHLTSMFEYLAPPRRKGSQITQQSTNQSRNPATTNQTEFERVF
T2 sequence (O60563 whole entry partner, species assumed): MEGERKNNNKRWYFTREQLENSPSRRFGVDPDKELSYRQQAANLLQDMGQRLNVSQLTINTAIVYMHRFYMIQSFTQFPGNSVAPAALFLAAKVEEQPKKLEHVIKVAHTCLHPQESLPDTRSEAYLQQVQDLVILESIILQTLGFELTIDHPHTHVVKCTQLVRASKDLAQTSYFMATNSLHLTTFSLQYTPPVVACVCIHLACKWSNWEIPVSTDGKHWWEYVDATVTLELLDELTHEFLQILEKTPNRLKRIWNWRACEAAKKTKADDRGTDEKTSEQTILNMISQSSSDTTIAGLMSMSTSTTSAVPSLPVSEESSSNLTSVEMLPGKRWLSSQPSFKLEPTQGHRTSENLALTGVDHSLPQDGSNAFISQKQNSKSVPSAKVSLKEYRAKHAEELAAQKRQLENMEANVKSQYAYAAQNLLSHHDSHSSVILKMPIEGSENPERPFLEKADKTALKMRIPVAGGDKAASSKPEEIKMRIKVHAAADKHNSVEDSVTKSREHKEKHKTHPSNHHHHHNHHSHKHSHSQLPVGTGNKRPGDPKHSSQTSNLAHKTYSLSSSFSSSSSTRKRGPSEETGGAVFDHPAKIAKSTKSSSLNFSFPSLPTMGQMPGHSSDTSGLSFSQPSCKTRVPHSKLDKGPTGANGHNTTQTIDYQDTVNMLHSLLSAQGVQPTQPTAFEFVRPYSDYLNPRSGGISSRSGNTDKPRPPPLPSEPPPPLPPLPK
Method: as §1

[3] = test system: MCF7 (human breast adenocarcinoma); assay: Calcein AM cytotoxicity assay, MCF7; type: cell-based; conditions: MCF7, read-out: Cytotoxic activity IC50 (μM) MCF7
Text: (§2) Cytotoxicity of the compounds is the major property determining their anticancer effect in vivo. One of the parameters used, as the basis for cytotoxicity assays, is the metabolic activity of viable cells. For example, a microtiter assay, which uses the Calcein AM, is now widely used to quantitate cell proliferation and cytotoxicity. For instance, this assay is used in drug screening programs and in chemosensitivity testing. Because only metabolically active cells cleave Calcein AM, these assays detect viable cells exclusively. The quantity of cleaved Calcein AM corresponds to the number of vital cells in the culture. We have been using the following cell lines: MCF7 (human breast adenocarcinoma), K562 (human chronic myelogenous leukaemia), HOS (human osteogenic sarcoma), HeLa (human cervical carcinoma), HL 60 (human promyelocytic leukaemia), G 361 (human malignant melanoma), CEM (human lymphoblastoid leukaemia). All cell lines were grown in DMEM medium (Gibco BRL) supplemented with 10% (v/v) fetal bovine serum and L-glutamine and maintained at 37° C. in a humidified atmosphere with 5% CO2. For cytotoxicity assays, 10^4 cells were seeded into each well of 96 well plate, allowed to stabilize for at least 2 h and then tested compounds were added at various concentrations ranging from 100 to 0.1 μM in triplicates. Three days after drug addition Calcein AM solution (Molecular Probes) was added and let to enter the cells for 1 hour. Fluorescence of viable cells was quantified using Fluoroskan Ascent (Microsystems).

[4] = test system: K562 (human chronic myelogenous leukaemia); assay: Calcein AM cytotoxicity assay, K562; type: cell-based; conditions: read-out: Cytotoxic activity IC50 (μM) K562
Text: as §2

[5] = test system: HOS (human osteogenic sarcoma); assay: Calcein AM cytotoxicity assay, HOS; type: cell-based; conditions: read-out: Cytotoxic activity IC50 (μM) HOS
Text: as §2

| SMILES | IC50 [1] [µM] | IC50 [2] [µM] | also measured |
| --- | --- | --- | --- |
| CCn1cnc2c(NCc3cc(Cl)ccc3O)nc(NC3CCCCC3N)nc21 (centres unmarked) [Compound 47] |  |  | IC50 [3]: 32 µM; IC50 [4]: 55 µM; IC50 [5]: 41 µM |
| COc1cccc(CNc2nc(NC3CCC(N)CC3)nc3c2ncn3C)c1O (centres unmarked) [Compound 32] | 0.22 | 0.18 |  |
| CCn1cnc2c(NCc3cc(Cl)ccc3O)nc(NC3CCC(N)CC3)nc21 (centres unmarked) [Compound 48] | 0.14 | 0.09 |  |
| CC(C)C(CO)Nc1nc(NCc2cc(Cl)ccc2O)c2ncn(C)c2n1 (centres unmarked) [Compound 4] | 0.25 | 0.08 |  |
| Cn1cnc2c(NCc3cc(F)ccc3O)nc(NC3CCCCC3N)nc21 (centres unmarked) [Compound 7] | 0.26 | 0.15 | IC50 ([3]; Homo sapiens): 35 µM; IC50 ([4]; Homo sapiens): 61 µM; IC50 ([5]; Homo sapiens): 47 µM |
| CCC(CO)Nc1nc(NCc2cc(F)ccc2O)c2ncn(C)c2n1 (centres unmarked) [Compound 9] | 0.3 | 0.17 | IC50 ([3]; Homo sapiens): 42 µM; IC50 ([4]; Homo sapiens): 67 µM; IC50 ([5]; Homo sapiens): 53 µM |
| NC1CCCCC1Nc1nc(NCc2cc(Cl)ccc2O)c2ncn(Cc3ccccc3)c2n1 (centres unmarked) [Compound 179] |  |  | IC50 [3]: 8.7 µM; IC50 [4]: 19.5 µM; IC50 [5]: 10.2 µM |
| CCC(CC)n1cnc2c(NCc3cc(F)ccc3O)nc(NC3CCCCC3N)nc21 (centres unmarked) [compound 226] |  |  | IC50 [3]: 4.1 µM; IC50 [4]: 12.4 µM; IC50 [5]: 4.3 µM |
| CCC(CO)Nc1nc(NCc2cccc(OC)c2O)c2ncn(C)c2n1 (centres unmarked) [Compound 34] | 0.27 | 0.16 |  |
| NC1CCCCC1Nc1nc(NCc2cc(F)ccc2O)c2ncn(Cc3ccccc3)c2n1 (centres unmarked) [Compound 186] |  |  | IC50 [3]: 6.9 µM; IC50 [4]: 15.4 µM; IC50 [5]: 9.3 µM |
| COc1ccc(O)c(CNc2nc(NC3CCCCC3N)nc3c2ncn3C(C)C)c1 (centres unmarked) [Compound 143] |  |  | IC50 [3]: 5 µM; IC50 [4]: 13.1 µM |
| CCC(CC)n1cnc2c(NCc3cccc(OC)c3O)nc(NC3CCCCC3N)nc21 (centres unmarked) [compound 238] | 0.06 | 0.04 |  |

Continued, in another order:

| IC50 [1] [µM] | IC50 [2] [µM] | SMILES | also measured |
| --- | --- | --- | --- |
| 0.1 | 0.07 | CCC(CO)Nc1nc(NCc2cc(OC)ccc2O)c2ncn(C(CC)CC)c2n1 (centres unmarked) [compound 240] |  |
| 0.04 | 0.01 | CC(C)n1cnc2c(NCc3cc(Cl)ccc3O)nc(NC(C)C(C)(C)O)nc21 (centres unmarked) [Compound 82] |  |
| 0.04 | 0.01 | CC(C)n1cnc2c(NCc3cc(Cl)ccc3O)nc(NC3CCC(N)CC3)nc21 (centres unmarked) [Compound 77] |  |
| 0.04 | 0.02 | CCC(CO)Nc1nc(NCc2cccc(OC)c2O)c2ncn(C(CC)CC)c2n1 (centres unmarked) [compound 237] |  |
| 0.05 | 0.03 | COc1cccc(CNc2nc(NC3CCC(O)CC3)nc3c2ncn3C(C)C)c1O (centres unmarked) [Compound 136] |  |
| 0.12 | 0.05 | CCn1cnc2c(NCc3cc(C)ccc3O)nc(NC3CCCCC3N)nc21 (centres unmarked) [Compound 59] |  |
| 0.08 | 0.06 | COc1cccc(CNc2nc(NCC(C)O)nc3c2ncn3C(C)C)c1O (centres unmarked) [Compound 127] |  |
| 0.06 | 0.01 | CCC(CC)n1cnc2c(NCc3cc(F)ccc3O)nc(NC3CCC(N)CC3)nc21 (centres unmarked) [compound 227] |  |
|  | 0.04 | CCC(CO)Nc1nc(NCc2cccc(O)c2O)c2ncn(C(C)C)c2n1 (centres unmarked) [Compound 113] | IC50 ([3]; Homo sapiens): 4.5 µM; IC50 ([4]; Homo sapiens): 7.8 µM; IC50 ([5]; Homo sapiens): 8.4 µM |
| 0.08 | 0.07 | CC(C)n1cnc2c(NCc3cc(O)ccc3O)nc(NC3CCCCC3N)nc21 (centres unmarked) [Compound 121] |  |
| 0.17 | 0.09 | CCC(CO)Nc1nc(NCc2ccc(OC)cc2O)c2ncn(CC)c2n1 (centres unmarked) [Compound 73] |  |
|  | 0.04 | CCC(CO)Nc1nc(NCc2cccc(C)c2O)c2ncn(C(C)C)c2n1 (centres unmarked) [Compound 101] |  |
| 0.11 | 0.07 | CCn1cnc2c(NCc3cccc(OC)c3O)nc(NC3CCC(N)CC3)nc21 (centres unmarked) [Compound 70] |  |
| 0.02 | 0.007 | CC(C)n1cnc2c(NCc3cc(Cl)ccc3O)nc(NCCC(C)(C)O)nc21 [Compound 83] |  |
| 0.09 | 0.04 | CCC(CO)Nc1nc(NCc2ccc(OC)cc2O)c2ncn(C(C)C)c2n1 (centres unmarked) [Compound 139] |  |
